# Reference: US8993636B2 (Alcon, Inc., priority 1998, dated 2015)
# Assays:
# Assay in all cases: Minimum inhibitory concentration (MIC90)
# Type in all cases: cell-based
# [1] = tested on: H. influenzae/β-lactamase positive; conditions: Haemophilus influenzae, inhibits growth of 90% of the strains
# Excerpt: (§1) The concentrations of the antibiotics of formula (I) in the compositions of the present invention will vary depending on the intended use of the compositions (e.g., treatment of existing infections or prevention of post-surgical infections), and the relative antimicrobial activity of the specific antibiotic selected. The antimicrobial activity of antibiotics is generally expressed as the minimum concentration required to inhibit the growth of a specified pathogen. This concentration is also referred to as the “minimum inhibitory concentration” or “MIC”. The term “MIC90” refers to the minimum concentration of antibiotic required to inhibit the growth of ninety percent (90%) of the strains of a species. The concentration of an antibiotic required to totally kill a specified bacteria is referred to as the “minimum bactericidal concentration” or “MBC”.
# [2] = tested on: S. epidermidis/methicillin resistant; conditions: Staphylococcus epidermidis, inhibits growth of 90% of the strains
# Excerpt: as §1
# [3] = tested on: S. aureus/methicillin sensitive; conditions: Staphylococcus aureus, inhibits growth of 90% of the strains
# Excerpt: as §1
# [4] = tested on: P. aeruginosa; conditions: Pseudomonas aeruginosa, inhibits growth of 90% of the strains
# Excerpt: as §1
# [5] = tested on: H influenzae/β-lactamase negative; conditions: inhibits growth of 90% of the strains
# Excerpt: as §1
# [6] = tested on: S. pneumoniae/penicillin sensitive; conditions: Streptococcus pneumoniae, inhibits growth of 90% of the strains
# Excerpt: as §1
# [7] = tested on: S. pneumoniae/penicillin resistant; conditions: Streptococcus pneumoniae, inhibits growth of 90% of the strains
# Excerpt: as §1
# [8] = tested on: S. epidermidis/methicillin sensitive; conditions: Staphylococcus epidermidis, inhibits growth of 90% of the strains
# Excerpt: as §1
# [9] = tested on: S. aureus/quinolone resistant; conditions: Staphylococcus aureus, inhibits growth of 90% of the strains
# Excerpt: as §1
# [10] = tested on: S. aureus/methicillin resistant; conditions: Staphylococcus aureus, inhibits growth of 90% of the strains
# Excerpt: as §1
structure (smiles),measurement,setting,value
COc1c(N2C[C@@H]3CCCN[C@@H]3C2)c(F)cc2c(=O)c(C(=O)O)cn(C3CC3)c12 [Moxifloxacin],MIC90,[1],0.06 µg/mL
same,MIC90,[2],4 µg/mL
same,MIC90,[3],0.13 µg/mL
same,MIC90,[4],8 µg/mL
same,MIC90,[5],0.06 µg/mL
same,MIC90,[6],0.25 µg/mL
same,MIC90,[7],0.25 µg/mL
same,MIC90,[8],0.25 µg/mL
same,MIC90,[9],4 µg/mL
same,MIC90,[10],4 µg/mL
